Where two headings read alike, the source gives them in different places.

In one experiment the test system is Puccinia recondita. Nature of the experiment: Fungicidal activity against Wheat Leaf Rust (WLR) disease. The class given is in vivo.
The next experiment concerns Botrytis cinerae. As to the kind of experiment: Fungicidal activity against Cucumber Gray Mold Rot (CGM) disease. Type of experiment: in vivo. Conditions: 50 ppm.
Another experiment deals with Erysiphae graminis. As to the kind of experiment: Fungicidal activity against Barley Powdery Mildew (BPM) disease. Type of experiment: in vivo.
Experiment [1] concerns Pyricularia oryzae Carvara KA301. The class given is in vivo.
For a further experiment, the system named is Rhizoctonia solani AG-1. Nature of the experiment: Fungicidal activity against Rice Sheath Blight (RSB) disease.
The subject of the next experiment is Phytophthora infestans. The class given is in vivo.

With `CON=C(C(=O)OC)c1ccccc1CON=C(C)c1cccc(OC(F)=C(c2ccc(OC)cc2)C(F)(F)F)c1` [Compound 181], the entries for the “Fungicidal Activities WLR (C.V.)” value with Puccinia recondita (2 ppm) and in the experiment with Puccinia recondita (50 ppm) were 83% and 99%, respectively. Further, in the experiment with Botrytis cinerae, the “Fungicidal Activities CGM (C.V.)” value came to 77%. Further, the “Fungicidal Activities BPM (C.V.)” value in the experiment with Erysiphae graminis (2 ppm) was 83%; in the experiment on Erysiphae graminis (50 ppm), 100%. For the same compound, the entries for the “Fungicidal Activities RCV (C.V.)” value in experiment [1] (2 ppm) and in experiment [1] (50 ppm) were 98% and 95%, respectively. Also, the figures for the “Fungicidal Activities RSB (C.V.)” value in the experiment on Rhizoctonia solani AG-1 (2 ppm) and in the experiment with Rhizoctonia solani AG-1 (50 ppm) were 35% and 45%, respectively. The “Fungicidal Activities TLB (C.V.)” value turned out to be 68% in the experiment on Phytophthora infestans (2 ppm) and 30% in the experiment on Phytophthora infestans (50 ppm).

Take `CON=C(C(=O)OC)c1ccccc1CON=C(C)c1cccc(OC(F)=C(c2cccc(F)c2)C(F)(F)F)c1` [Compound 182]: the “Fungicidal Activities WLR (C.V.)” value stood at 95% in the experiment on Puccinia recondita (2 ppm) and 100% in the experiment with Puccinia recondita (50 ppm). Moreover, the “Fungicidal Activities CGM (C.V.)” value in the experiment with Botrytis cinerae came out at 77%. In addition, the “Fungicidal Activities BPM (C.V.)” value stood at 96% in the experiment on Erysiphae graminis (2 ppm) and 100% with Erysiphae graminis (50 ppm). Also, the “Fungicidal Activities RCV (C.V.)” value in experiment [1] (2 ppm) and in experiment [1] (50 ppm) was 95% in each case. Also, the “Fungicidal Activities RSB (C.V.)” value with Rhizoctonia solani AG-1 (2 ppm) came to 30%; in the experiment with Rhizoctonia solani AG-1 (50 ppm) it was 50%. For the same compound, the figures for the “Fungicidal Activities TLB (C.V.)” value in the experiment with Phytophthora infestans (2 ppm) and in the experiment on Phytophthora infestans (50 ppm) were 62% and 40%, respectively.

Regarding `CON=C(C(=O)OC)c1ccccc1CON=C(C)c1cccc(OC(F)=C(c2ccc(F)cc2)C(F)(F)F)c1` [Compound 183], the “Fungicidal Activities WLR (C.V.)” value worked out at 99% in the experiment with Puccinia recondita (2 ppm) and 100% in the experiment with Puccinia recondita (50 ppm). Besides, in the experiment on Botrytis cinerae, the “Fungicidal Activities CGM (C.V.)” value stood at 56%. In addition, the “Fungicidal Activities BPM (C.V.)” value in the experiment with Erysiphae graminis (2 ppm) and in the experiment on Erysiphae graminis (50 ppm) was 100% throughout. For the same compound, the “Fungicidal Activities RCV (C.V.)” value in experiment [1] (2 ppm) worked out at 99%; in experiment [1] (50 ppm), 100%. For the same compound, the “Fungicidal Activities RSB (C.V.)” value in the experiment on Rhizoctonia solani AG-1 (2 ppm) came out at 20%; in the experiment on Rhizoctonia solani AG-1 (50 ppm), 100%. The “Fungicidal Activities TLB (C.V.)” value in the experiment with Phytophthora infestans (2 ppm) came out at 12%; in the experiment with Phytophthora infestans (50 ppm), 50%.

As to `CON=C(C(=O)OC)c1ccccc1CON=C(C)c1cccc(OC(F)=C(c2cccc(Cl)c2)C(F)(F)F)c1` [Compound 184], the entries for the “Fungicidal Activities WLR (C.V.)” value with Puccinia recondita (2 ppm) and in the experiment with Puccinia recondita (50 ppm) were 98% and 99%, respectively. For the same compound, the “Fungicidal Activities CGM (C.V.)” value in the experiment on Botrytis cinerae is 0%. The entries for the “Fungicidal Activities BPM (C.V.)” value in the experiment with Erysiphae graminis (2 ppm) and in the experiment with Erysiphae graminis (50 ppm) were 99% and 100%, respectively. Also, the “Fungicidal Activities RCV (C.V.)” value in experiment [1] (2 ppm) is 90%; in experiment [1] (50 ppm), 96%. For the same compound, the “Fungicidal Activities RSB (C.V.)” value in the experiment on Rhizoctonia solani AG-1 (2 ppm) is listed as 20%; with Rhizoctonia solani AG-1 (50 ppm), 85%. For the same compound, the “Fungicidal Activities TLB (C.V.)” value in the experiment on Phytophthora infestans (2 ppm) is 0%; in the experiment with Phytophthora infestans (50 ppm) it was 50%.

On to `CON=C(C(=O)OC)c1ccccc1CON=C(C)c1cccc(OC(F)=C(c2ccc(Cl)cc2)C(F)(F)F)c1` [Compound 185], for which the “Fungicidal Activities WLR (C.V.)” value amounted to 95% in the experiment with Puccinia recondita (2 ppm) and 100% with Puccinia recondita (50 ppm). Moreover, in the experiment on Botrytis cinerae, the “Fungicidal Activities CGM (C.V.)” value stood at 0%. Besides, the entries for the “Fungicidal Activities BPM (C.V.)” value in the experiment on Erysiphae graminis (2 ppm) and with Erysiphae graminis (50 ppm) were 98% and 100%, respectively. Moreover, the “Fungicidal Activities RCV (C.V.)” value in experiment [1] (2 ppm) is given as 73%; in experiment [1] (50 ppm), 96%. Further, the “Fungicidal Activities RSB (C.V.)” value amounted to 25% in the experiment on Rhizoctonia solani AG-1 (2 ppm) and 75% in the experiment on Rhizoctonia solani AG-1 (50 ppm). In addition, the results for the “Fungicidal Activities TLB (C.V.)” value with Phytophthora infestans (2 ppm) and in the experiment with Phytophthora infestans (50 ppm) were 25% and 50%, respectively.

As to `CON=C(C(=O)OC)c1ccccc1CON=C(C)c1cccc(OC(F)=C(c2cc(Cl)cc(Cl)c2)C(F)(F)F)c1` [Compound 186], the “Fungicidal Activities WLR (C.V.)” value with Puccinia recondita (2 ppm) was found to be 66%; with Puccinia recondita (50 ppm), 99%. Besides, in the experiment with Botrytis cinerae, the “Fungicidal Activities CGM (C.V.)” value came out at 25%. The entries for the “Fungicidal Activities BPM (C.V.)” value with Erysiphae graminis (2 ppm) and with Erysiphae graminis (50 ppm) were 86% and 100%, respectively. For the same compound, the “Fungicidal Activities RCV (C.V.)” value in experiment [1] (2 ppm) worked out at 73%; in experiment [1] (50 ppm), 83%. The “Fungicidal Activities RSB (C.V.)” value in the experiment with Rhizoctonia solani AG-1 (2 ppm) was determined as 15%; with Rhizoctonia solani AG-1 (50 ppm) it was 50%. For the same compound, the “Fungicidal Activities TLB (C.V.)” value in the experiment on Phytophthora infestans (2 ppm) and in the experiment with Phytophthora infestans (50 ppm) was 0% in each case.

As for `CON=C(C(=O)OC)c1ccccc1CON=C(C)c1cccc(OC(F)=C(c2ccc(Br)cc2)C(F)(F)F)c1` [Compound 187], the “Fungicidal Activities WLR (C.V.)” value was 95% in the experiment on Puccinia recondita (2 ppm) and 100% with Puccinia recondita (50 ppm). Moreover, the “Fungicidal Activities CGM (C.V.)” value in the experiment on Botrytis cinerae is 0%. Moreover, the “Fungicidal Activities BPM (C.V.)” value in the experiment on Erysiphae graminis (2 ppm) amounted to 97%; in the experiment on Erysiphae graminis (50 ppm), 98%. Further, the “Fungicidal Activities RCV (C.V.)” value in experiment [1] (2 ppm) was 97%; in experiment [1] (50 ppm) it was 83%. Also, the “Fungicidal Activities RSB (C.V.)” value turned out to be 20% with Rhizoctonia solani AG-1 (2 ppm) and 85% in the experiment with Rhizoctonia solani AG-1 (50 ppm). In addition, the figures for the “Fungicidal Activities TLB (C.V.)” value in the experiment with Phytophthora infestans (2 ppm) and in the experiment with Phytophthora infestans (50 ppm) were 25% and 0%, respectively.

As to `CON=C(C(=O)OC)c1ccccc1CON=C(C)c1cccc(OC(F)=C(c2cccc(C(F)(F)F)c2)C(F)(F)F)c1` [Compound 188], the entries for the “Fungicidal Activities WLR (C.V.)” value in the experiment on Puccinia recondita (2 ppm) and with Puccinia recondita (50 ppm) were 66% and 95%, respectively. Also, in the experiment with Botrytis cinerae, the “Fungicidal Activities CGM (C.V.)” value turned out to be 0%. For the same compound, the “Fungicidal Activities BPM (C.V.)” value in the experiment with Erysiphae graminis (2 ppm) is 91%; in the experiment with Erysiphae graminis (50 ppm) it was 100%. The entries for the “Fungicidal Activities RCV (C.V.)” value in experiment [1] (2 ppm) and in experiment [1] (50 ppm) were 76% and 71%, respectively. The “Fungicidal Activities RSB (C.V.)” value in the experiment with Rhizoctonia solani AG-1 (2 ppm) came out at 0%; in the experiment with Rhizoctonia solani AG-1 (50 ppm) it was 55%. The “Fungicidal Activities TLB (C.V.)” value in the experiment with Phytophthora infestans (2 ppm) is reported as 0%; with Phytophthora infestans (50 ppm) it was 40%.

As to `CON=C(C(=O)OC)c1ccccc1CON=C(C)c1cccc(OC(F)=C(c2ccc3c(c2)OCO3)C(F)(F)F)c1` [Compound 190], the “Fungicidal Activities WLR (C.V.)” value was determined as 93% with Puccinia recondita (2 ppm) and 100% in the experiment on Puccinia recondita (50 ppm). Further, the “Fungicidal Activities CGM (C.V.)” value with Botrytis cinerae is on record as 0%. In addition, the “Fungicidal Activities BPM (C.V.)” value in the experiment with Erysiphae graminis (2 ppm) worked out at 91%; in the experiment on Erysiphae graminis (50 ppm) it was 100%. The results for the “Fungicidal Activities RCV (C.V.)” value in experiment [1] (2 ppm) and in experiment [1] (50 ppm) were 66% and 93%, respectively. The “Fungicidal Activities RSB (C.V.)” value with Rhizoctonia solani AG-1 (2 ppm) is reported as 15%; in the experiment on Rhizoctonia solani AG-1 (50 ppm), 65%. Further, the “Fungicidal Activities TLB (C.V.)” value in the experiment with Phytophthora infestans (2 ppm) and in the experiment with Phytophthora infestans (50 ppm) was 0% throughout.

Regarding `CNC(=O)C(=NOC)c1ccccc1CON=C(C)c1cccc(OC(F)=C(c2ccccc2)C(F)(F)F)c1` [Compound 191], the “Fungicidal Activities WLR (C.V.)” value is 99% with Puccinia recondita (2 ppm) and 100% in the experiment on Puccinia recondita (50 ppm). Besides, the “Fungicidal Activities CGM (C.V.)” value with Botrytis cinerae is recorded as 68%. Further, the “Fungicidal Activities BPM (C.V.)” value in the experiment on Erysiphae graminis (2 ppm) and with Erysiphae graminis (50 ppm) was 100% in each case. Besides, the “Fungicidal Activities RCV (C.V.)” value in experiment [1] (2 ppm) and in experiment [1] (50 ppm) was 100% in each case. Besides, the “Fungicidal Activities RSB (C.V.)” value in the experiment with Rhizoctonia solani AG-1 (2 ppm) turned out to be 35%; in the experiment with Rhizoctonia solani AG-1 (50 ppm), 75%. For the same compound, the entries for the “Fungicidal Activities TLB (C.V.)” value in the experiment on Phytophthora infestans (2 ppm) and in the experiment on Phytophthora infestans (50 ppm) were 0% and 60%, respectively.

Values taken from patent publication US6552080B1, “Fungicidal compounds having a fluorovinyl-or fluoropropenyl-oxyphenyloxime moiety and process for the preparation thereof” (Korea Research Institute of Chemical Technology, priority 1999, dated 2003).
